Measurements taken from a compilation of properties of binary mixtures (doi:10.1007/s10953-012-9875-7).

Test: xn = mol fraction of the nth substance listed
Details: 101 kPa

CCCC[n+]1ccn(C)c1.N#C[S-] + O
viscosity [mPa·s]
Details | 298.15 K | 308.15 K | 318.15 K | 328.15 K | 338.15 K | 348.15 K
x2 = 0 | 51.74 | 34.9 | 24.2 | – | 12.73 | 9.98
x2 = 0.0998 | 40.2 | 26.9 | 19.1 | – | 10.98 | 8.73
x2 = 0.2007 | – | – | – | 12.2 | 9.53 | 7.61
x2 = 0.3169 | – | 18.1 | – | 10.12 | – | 6.4
x2 = 0.4346 | 19.5 | 13.91 | 10.4 | 8.04 | 6.37 | 5.14
x2 = 0.5296 | 15.17 | 10.96 | 8.29 | 6.44 | – | –
x2 = 0.6426 | 10.8 | 7.95 | 6.05 | – | 3.76 | 3.1
x2 = 0.7201 | 8.27 | 6.14 | – | – | 2.96 | 2.48
x2 = 0.7949 | 5.95 | 4.36 | 3.33 | 2.67 | – | 1.86
x2 = 0.8733 | 3.75 | 2.84 | 2.23 | 1.82 | 1.51 | 1.28
x2 = 0.9444 | 2.02 | 1.58 | 1.27 | 1.05 | 0.9 | 0.78

CCCC[n+]1ccc(C)cc1.N#C[S-] + O
viscosity [mPa·s]
Details | 298.15 K | 308.15 K | 318.15 K | 328.15 K | 338.15 K | 348.15 K
x1 = 0.0076 | 1.07 | 0.87 | – | 0.63 | 0.57 | 0.52
x2 = 0 | 86 | 51.75 | – | 23.5 | – | 12.86
x2 = 0.0564 | – | 46 | 30.4 | 21.3 | 15.54 | 11.74
x2 = 0.1655 | 57.6 | 36.4 | 24.6 | 17.5 | – | –
x2 = 0.278 | 43.1 | 28 | 19.3 | 13.95 | 10.49 | 8.18
x2 = 0.3797 | 31.3 | 20.9 | 14.68 | 10.87 | – | 6.62
x2 = 0.4628 | 24.8 | 16.8 | 12.14 | 9.17 | – | 5.73
x2 = 0.5669 | 17.8 | 12.47 | 9.17 | 7.02 | – | –
x2 = 0.6364 | 14.06 | – | 7.48 | 5.78 | 4.58 | 3.69
x2 = 0.7623 | 8.6 | 6.3 | 4.78 | 3.7 | – | 2.44
x2 = 0.8333 | 6.04 | 4.45 | 3.37 | 2.66 | 2.08 | 1.62
x2 = 0.9028 | 3.65 | 2.74 | 2.13 | – | 1.41 | 1.24
x2 = 0.957 | 1.98 | 1.53 | 1.23 | – | 0.86 | –
x2 = 0.9714 | – | – | – | – | – | 0.64

O + CCCC[n+]1ccn(C)c1.N#C[S-]
x1 = 1
Details | viscosity [mPa·s]
308.15 K | 0.74
318.15 K | 0.63
328.15 K | 0.56
348.15 K | 0.46

O + CCCC[N+]1(C)CCCCC1.N#C[S-]
x1 = 1
Details | viscosity [mPa·s]
328.15 K | 0.56
338.15 K | 0.5
348.15 K | 0.43
